The values that follow come from ChEMBL document CHEMBL5233249, “Recent advancements in the development of heterocyclic anti-inflammatory agents” (Eur J Med Chem, 2020).

For data set [1], the target named is T1, Prostaglandin G/H synthase 1 (Ovis aries, UniProt P05979).
T1 sequence (P05979 whole entry): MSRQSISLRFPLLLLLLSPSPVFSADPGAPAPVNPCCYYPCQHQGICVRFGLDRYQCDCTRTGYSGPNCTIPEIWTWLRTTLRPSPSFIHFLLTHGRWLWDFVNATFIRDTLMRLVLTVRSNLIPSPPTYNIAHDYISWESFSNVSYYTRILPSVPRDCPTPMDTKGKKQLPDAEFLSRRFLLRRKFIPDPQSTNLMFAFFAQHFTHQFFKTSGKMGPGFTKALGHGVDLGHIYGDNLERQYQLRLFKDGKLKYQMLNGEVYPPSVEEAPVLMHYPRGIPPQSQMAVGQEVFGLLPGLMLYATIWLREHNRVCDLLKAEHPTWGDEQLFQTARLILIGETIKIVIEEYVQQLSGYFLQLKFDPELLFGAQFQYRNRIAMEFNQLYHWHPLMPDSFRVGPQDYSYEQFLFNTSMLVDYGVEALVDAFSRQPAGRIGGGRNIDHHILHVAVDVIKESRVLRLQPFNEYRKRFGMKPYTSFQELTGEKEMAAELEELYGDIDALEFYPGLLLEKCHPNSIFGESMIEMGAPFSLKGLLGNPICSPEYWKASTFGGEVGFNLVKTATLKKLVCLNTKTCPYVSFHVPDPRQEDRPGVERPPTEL
Nature of the data set: Inhibition of ovine COX-1 by EIA method.

In data set [2] the test system is Rattus norvegicus. The data set can be described thus: Anti-inflammatory activity in Carageenan-induced foot paw edema in Sprague-Dawley rat at 50 mg/kg assessed as reduction in paw edema volume relative to control. On the set-up: scale not given: the % may be the effect or the level left. The class given is functional.
Data set [3] concerns Rattus norvegicus. Nature of the data set: Anti-inflammatory activity in Carrageenan-induced paw edema in PO dosed Swiss albino rat model at 10 mg/kg assessed as inhibition in volume of edema measured after 1 hrs relative to control. The class given is functional.
In data set [4] the test system is RAW264.7. Nature of the data set: Anti-inflammatory activity in mouse RAW264.7 cells assessed as inhibition of LPS-induced TNFalpha production measured after 24 hrs by EIA method relative to control. It is filed as functional. Further details: scale not given: the % may be the effect or the level left.
In data set [5] the test system is Mus musculus. The data set can be described thus: Anti-inflammatory activity against Carrageenan-induced paw edema in mouse model assessed as inhibition of edema at 100 mg/kg measured after 4 hrs relative to control. The class given is functional. Further details: scale not given: the % may be the effect or the level left.
Data set [6] relates to Rattus norvegicus. The data set can be described thus: Ulcerogenic activity in Swiss albino Wistar rat assessed as ulcer lesion score at 100 mg/kg, po. The class given is functional.
A short description of data set [7]: Anti-inflammatory activity assessed as protein denaturation using bovine serum albumin at 100 uM relative to control. The class given is functional.
Data set [8] can be described thus: Anti-inflammatory activity assessed as protein denaturation using bovine serum albumin at 250 uM relative to control. It is filed as functional.
Data set [9] in a line: Anti-inflammatory activity assessed as protein denaturation using bovine serum albumin at 500 uM relative to control. It is filed as functional.
Data set [10] is described as follows: Anti-inflammatory activity assessed as protein denaturation using egg albumin at 100 uM relative to control. The class given is functional.
Data set [11] in a line: Anti-inflammatory activity assessed as protein denaturation using egg albumin at 250 uM relative to control. The class given is functional.
The nature of data set [12]: Anti-inflammatory activity assessed as protein denaturation using egg albumin at 500 uM relative to control. It is filed as functional.
Data set [13] has as its system Rattus norvegicus. The data set can be described thus: Anti-inflammatory activity against formalin-induced foot paw edema in PO dosed rat at 10 mg/kg assessed as inhibition of edema measured after 1 hr relative to control. On the set-up: scale not given: the % may be the effect or the level left. The class given is functional.
The species named for data set [14] is Rattus norvegicus. The data set can be described thus: Antinociceptive activity in Wistar rat assessed as hot-plate change in latency by hot plate test method relative to control. The class given is organism-based. As to conditions: in vivo.
For data set [15], the system named is RAW264.7. Nature of the data set: Anti-inflammatory activity in mouse RAW264.7 cells assessed as LPS-induced reduction in NO production measured after 24 hrs. It is filed as functional, cell-based. The following applies: RAW264.7, 24 h.
Data set [16] in a line: Anti-inflammatory activity assessed as protein denaturation using bovine serum albumin relative to control. It is filed as functional.
Data set [17] in a line: Antioxidant activity assessed as DPPH radical scavenging activity incubated for 20 mins relative to control. The class given is functional.
A short description of data set [18]: Inhibition of MAPK p38 (unknown origin). On the set-up: species or system Homo sapiens.
The subject of data set [19] is Rattus norvegicus. The data set can be described thus: Anti-inflammatory activity in Carrageenan-induced rat paw edema in Wistar rat assessed as reduction in inhibition of edema measured after 4 hrs relative to control. The class given is functional. On the set-up: scale not given: the % may be the effect or the level left.
The target in data set [20] is Tumor necrosis factor (Homo sapiens) (UniProt P01375). The data set can be described thus: Inhibition of TNF-alpha (unknown origin) relative to control. The following applies: concentration not given here.
Data set [21] deals with Rattus norvegicus. Nature of the data set: Anti-inflammatory activity in Carrageenan-induced paw edema in Wistar albino rat assessed as inhibition of paw edema measured after 1 hr relative to control. It is filed as functional.
Data set [22] deals with Rattus norvegicus. The data set can be described thus: Anti-inflammatory activity in Carrageenan-induced paw edema in Wistar albino rat assessed as inhibition of paw edema measured after 2 hr relative to control. It is filed as functional.
Data set [23] concerns Rattus norvegicus. The data set can be described thus: Anti-inflammatory activity in Carrageenan-induced paw edema in Wistar albino rat assessed as inhibition of paw edema measured after 3 hr relative to control. It is filed as functional.
Data set [24] deals with Rattus norvegicus. Nature of the data set: Anti-inflammatory activity against Carrageenan-induced paw edema in Wistar albino rat ulcerogenic activity assessed as reduction in severity index. The class given is functional.
In data set [25] the test system is RAW264.7. Nature of the data set: Anti-inflammatory activity in mouse RAW264.7 cells assessed as inhibition of LPS-induced NO production. It is filed as functional, cell-based.
Data set [26] relates to RAW264.7. The data set can be described thus: Anti-inflammatory activity in mouse RAW264.7 cells assessed as inhibition of LPS-induced TNFalpha production measured after 24 hrs by EIA method. As to conditions: RAW264.7, 24 h. It is filed as functional, cell-based.
Data set [27] deals with RAW264.7. The data set can be described thus: Anti-inflammatory activity in mouse RAW264.7 cells assessed as inhibition of LPS-induced IL-6 production measured after 24 hrs by EIA method. The following applies: RAW264.7, 24 h. The class given is functional, cell-based.
The subject of data set [28] is Rattus norvegicus. Nature of the data set: Anti-ulcerative activity in Carrageenan-induced paw edema Swiss albino rat ulcer model assessed as inhibition of ulcer index at 10 mg/kg,po. It is filed as functional.
Data set [29] relates to Mus musculus. The data set can be described thus: Analgesic activity in PO dosed Swiss albino mouse assessed as protection of paw edema measured after 2 hrs at 20 mg/kg relative to control. It is filed as functional.

Sequence of Tumor necrosis factor (Homo sapiens) (P01375 whole entry, looked up): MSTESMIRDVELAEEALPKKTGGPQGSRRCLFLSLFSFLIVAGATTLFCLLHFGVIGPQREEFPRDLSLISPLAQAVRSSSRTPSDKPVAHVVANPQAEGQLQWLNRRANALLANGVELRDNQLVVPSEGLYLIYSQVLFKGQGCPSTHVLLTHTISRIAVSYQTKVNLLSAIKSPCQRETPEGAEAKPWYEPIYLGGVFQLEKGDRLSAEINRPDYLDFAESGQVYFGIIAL

For the compound `O=C(NNC(=S)NCc1ccccc1)c1ccc(C2=CN3c4ccccc4NC3S2)nc1` (centres undefined), the IC50 in [1] amounted to 0.075 µM. For the same compound, the Activity in data set [2] amounted to 75.9%.
In the case of `Cc1c(-c2ccccc2)n(C(=O)c2ccc(Cl)cc2)c2ccc(S(C)(=O)=O)cc12`, the inhibition in vivo at 10 mg/kg in [3] was 73.5%.
On to `COc1cc(OC)c2c(c1)OCC/C(=C\Cc1ccccn1)C2=O`, for which the Activity in data set [4] worked out at 92.5%.
Consider `O=C(NCn1c(-c2ccccc2Cl)nc2ccccc21)c1ccc(Cl)cc1`, for which the values for the Activity in data set [5] and in [6] were 62.5% and 13.53 mm, respectively.
Regarding `COc1ccc(NC(=O)c2cc(-c3ccncc3)n[nH]2)cc1`, the Activity in data set [7] was determined as 65%; in data set [8], 80%; in [9] it was 90%; in data set [10], 60%; in [11] it was 85%; in data set [12], 95%.
For `CCOC(=O)c1c(SC)nn(C(=O)CSc2nnc(CCCOc3ccc(C)cc3C(=O)c3ccc(F)cc3)o2)c1N`, the Activity is listed as 52.17% in [13] and 92.3% in [14].
Consider `COc1ccc(C(=O)c2nc3ccccc3cc2-c2cc(OC)c(OC)c(OC)c2)cc1`, for which the IC50 in [15] came out at 6.7 µM.
In the case of `O=C(Nc1ccc(Cl)cc1)c1ccc(Nc2ncnc3c2cnn3-c2ccccc2)cc1`, the Activity in data set [16] was determined as 82.3%; in data set [17], 74.9%; in [19], 83.73%. The IC50 in data set [18] stood at 1.63 µM. In data set [20], the inhibition amounted to 62.3%.
Take `Cc1ccccc1-c1nnc(Cn2c(CN3CCOCC3)nc3ccccc32)o1`: the “inhibition (INH)” value is given as 62.29% in data set [21], 68.31% in [22] and 31.25% in data set [23]. Further, the Activity in data set [24] was 0.32 mm.
Take `CCCCc1nn(C)c2c(NCCCN3CCOCC3)nc(/C=C/c3cc(OC)c(OC)c(OC)c3)nc12`: the IC50 in [25] was determined as 5.63 µM; in [26], 4.38 µM; in [27] it was 2.64 µM.
Turning to `CC1=NN(c2ccc(Cl)cc2)C(=O)/C1=N\Nc1ccc(-c2nc3ccccc3[nH]2)cc1`, the UI in [28] came to 0.53. Also, the Activity in data set [29] worked out at 67%.
